Results taken from US20250042881A1, “CCR6 RECEPTOR MODULATORS” (Idorsia Pharmaceuticals Ltd, priority 2021, published 2025).

Target: T1, human CCR6 (Homo sapiens, UniProt P51684)
T1 construct: expressed in transfected cells; host or cells: HEK-293
T1 sequence (P51684 1-374): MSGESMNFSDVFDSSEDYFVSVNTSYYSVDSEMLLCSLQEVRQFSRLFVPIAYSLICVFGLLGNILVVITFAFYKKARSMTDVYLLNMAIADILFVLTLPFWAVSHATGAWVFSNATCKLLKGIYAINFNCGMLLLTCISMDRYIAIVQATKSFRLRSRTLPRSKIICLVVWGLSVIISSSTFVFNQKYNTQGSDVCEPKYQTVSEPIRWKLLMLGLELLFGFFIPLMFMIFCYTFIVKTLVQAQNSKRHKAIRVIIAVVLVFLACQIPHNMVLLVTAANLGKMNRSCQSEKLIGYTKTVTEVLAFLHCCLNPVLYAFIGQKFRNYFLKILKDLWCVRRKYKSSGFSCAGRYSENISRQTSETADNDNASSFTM
Test: FLIPR assay: inhibition of CCL20-induced calcium signal in HEK-293 cells expressing human CCR6
Format: cell-based
Conditions: engineered HEK-293 cells expressing human CCR6; agonist CCL20 10 nM; 30 min preincubation; Fluo-8-AM; mean values if determined several times
Description: FLIPR assay: The bioactivity of compounds is tested in a fluorometric imaging plate reader (FLIPR: Molecular Devices) using engineered HEK-293 cells expressing the human CCR6 (GenBank: AY242126). Frozen cells are plated on Poly-L-Lysine precoated 384-well plates 2 days prior to bioassay in DMEM medium supplemented with 10% FCS and 1% Penicillin-Streptomycin. At the day of bioassay, cell supernatant is discarded and cells are dye loaded for 30 minutes at room temperature in the dark with Fluo-8-AM (Focus Biomolecules) in Hanks Balanced Salt Solution (Gibco), buffered with 20 mM Hepes at pH 6.75 and supplemented with 0.05% BSA. This buffer, but lacking the dye, is also used for washing and compound dilution steps (assay buffer). Cells are washed free of excess dye with a wash-station (Biotek), leaving 40 microliter of assay buffer at the end. Cells were incubated for 15 minutes at room temperature in the dark, before adding compounds. Stock solutions of test compounds are made up at a concentration of 10 mM in DMSO, and serially diluted first in DMSO and then transferred in assay buffer to concentrations required for inhibition dose response curves. After a 45 minute incubation period in assay buffer at room temperature, 10 microliters of each compound dilution are transferred from a compound plate to the plate containing the recombinant cells in the FLIPR instrument according to the manufacturer's instructions. After cells and compounds were preincubated for 30 minutes at room temperature in the dark, 10 microliter agonist CCL20 (Peprotech) at a final concentration of 10 nM is added, again using the FLIPR instrument. Changes in fluorescence are monitored before and after addition of the test compounds and agonist. Emission peak values above base level after CCL20 addition are exported after base line subtraction. The calculated IC50 values may fluctuate depending on the daily assay performance. Fluctuations of this kind are known to those skilled in the art. In the case where IC50 values have been determined several times for the same compound, mean values are given.

| SMILES | IC50 [nM] |
| --- | --- |
| CC(C)c1ccc([C@](O)(c2cncc(-c3nc(C4CCN(C(=O)CO)CC4)n(C(C)C)n3)c2)C2(C)CN(C)C2)cc1 [Example 44, 1-[4-(5-{5-[(R)-(1,3-Dimethyl-azetidin-3-yl)-hydroxy-(4-isopropyl-phenyl)-methyl]-pyridin-3-yl}-2-isopropyl-2H-[1,2,4]triazol-3-yl)-piperidin-1-yl]-2-hydroxy-ethanone] | 199 |
| CC(=O)N1CCC(O)(c2nc(-c3cncc([C@@](O)(c4ccc(C(C)C)cc4)C4(C)CN(C)C4)c3)nn2C(C)C)CC1 [Example 47, 1-[4-(5-{5-[(R)-(1,3-Dimethyl-azetidin-3-yl)-hydroxy-(4-isopropyl-phenyl)-methyl]-pyridin-3-yl}-2-isopropyl-2H-[1,2,4]triazol-3-yl)-4-hydroxy-piperidin-1-yl]-ethanone] | 206 |
| CC(=O)NCCn1nc(-c2cncc([C@@](O)(c3ccc(C(C)C)cc3)C3(C)CN(C)C3)c2)nc1C1CCOCC1 [Example 50, N-{2-[3-{5-[(R)-(1,3-Dimethyl-azetidin-3-yl)-hydroxy-(4-isopropyl-phenyl)-methyl]-pyridin-3-yl}-5-(tetrahydro-pyran-4-yl)-[1,2,4]triazol-1-yl]-ethyl}-acetamide] | 481 |
| CC(C)c1ccc([C@](O)(c2cnnc(-c3nc(C4CCOCC4)n(C(C)C)n3)c2)C2(C)CN(C)C2)cc1 [Example 51, (R)-(1,3-Dimethyl-azetidin-3-yl)-(4-isopropyl-phenyl)-{6-[1-isopropyl-5-(tetrahydro-pyran-4-yl)-1H-[1,2,4]triazol-3-yl]-pyridazin-4-yl}-methanol] | 578 |

Now those with a lower IC50, led by results:

| IC50 [nM] | SMILES |
| --- | --- |
| 115 | CC(=O)N[C@H]1CC[C@H](c2nc(-c3cncc([C@@](O)(c4ccc(C(C)C)cc4)C4(C)CN(C)C4)c3)nn2C(C)C)CC1 [Example 43, N-[4-(5-{5-[(R)-(1,3-Dimethyl-azetidin-3-yl)-hydroxy-(4-isopropyl-phenyl)-methyl]-pyridin-3-yl}-2-isopropyl-2H-[1,2,4]triazol-3-yl)-trans-cyclohexyl]-acetamide] |
| 193 | CC(C)c1ccc([C@](O)(c2cncc(-c3nc(C4(C)CCNC(=O)C4)n(C(C)C)n3)c2)C2(C)CN(C)C2)cc1 (stereo partly drawn) [Example 45, 4-(5-{5-[(R)-(1,3-Dimethyl-azetidin-3-yl)-hydroxy-(4-isopropyl-phenyl)-methyl]-pyridin-3-yl}-2-isopropyl-2H-[1,2,4]triazol-3-yl)-4-methyl-piperidin-2-one] |
| 161 | CC(C)c1ccc([C@](O)(c2cncc(-c3nc(C4CCNC(=O)C4)n(C(C)C)n3)c2)C2(C)CN(C)C2)cc1 (stereo partly drawn) [Example 46, 4-(5-{5-[(R)-(1,3-Dimethyl-azetidin-3-yl)-hydroxy-(4-isopropyl-phenyl)-methyl]-pyridin-3-yl}-2-isopropyl-2H-[1,2,4]triazol-3-yl)-piperidin-2-one] |
| 170 | COCCn1nc(-c2cncc([C@@](O)(c3ccc(C(C)C)cc3)C3(C)CN(C)C3)c2)nc1C1CCOCC1 [Example 48, (R)-(1,3-Dimethyl-azetidin-3-yl)-(4-isopropyl-phenyl)-{5-[1-(2-methoxy-ethyl)-5-(tetrahydro-pyran-4-yl)-1H-[1,2,4]triazol-3-yl]-pyridin-3-yl}-methanol] |
| 55.8 | CC(C)c1ccc([C@](O)(c2cncc(-c3nc(C4CCOCC4)n(C4CC4)n3)c2)C2(C)CN(C3CC3)C2)cc1 [Example 49, (R)-(1-Cyclopropyl-3-methyl-azetidin-3-yl)-{5-[1-cyclopropyl-5-(tetrahydro-pyran-4-yl)-1H-[1,2,4]triazol-3-yl]-pyridin-3-yl}-(4-isopropyl-phenyl)-methanol] |
